Laboratory results published in ChEMBL document CHEMBL1201862, “PubChem BioAssay data set” (2004).
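Method: 48-hour compound exposure of cells in 96-well plates, five concentrations, linear interpolation of endpoints. GI50: concentration for 50% inhibition of growth.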 Calls of active or inactive are those of the source. Rule as the data show it: active = GI50 up to about 1.1 µM and inactive = higher.

Tests used:
Experiment in all cases: growth of human tumour cells (NCI), 48 h
HOP-18 = test system: HOP-18
OVCAR-8 = test system: OVCAR-8
SR = test system: SR
NCI-H522 = test system: NCI-H522
COLO 205 = test system: COLO 205
HCT-15 = test system: HCT-15
Malme-3M = test system: Malme-3M
DMS-273 = test system: DMS-273
NCI-H23 = test system: NCI-H23
DLD-1 = test system: DLD-1
SW-620 = test system: SW-620
ACHN = test system: ACHN
HL-60 = test system: HL-60
EKVX = test system: EKVX
HCC 2998 = test system: HCC 2998
TK-10 = test system: TK-10
SF-295 = test system: SF-295
HOP-62 = test system: HOP-62
OVCAR-4 = test system: OVCAR-4
SF-539 = test system: SF-539
RPMI-8226 = test system: RPMI-8226
UACC-62 = test system: UACC-62
OVCAR-5 = test system: OVCAR-5
786-0 = test system: 786-0
SK-MEL-28 = test system: SK-MEL-28
M19-MEL = test system: M19-MEL
SNB-19 = test system: SNB-19
KM-20L2 = test system: KM-20L2
NCI-H226 = test system: NCI-H226
SK-MEL-2 = test system: SK-MEL-2
CAKI-1 = test system: CAKI-1
HT-29 = test system: HT-29
NCI-H460 = test system: NCI-H460
A498 = test system: A498
IGROV-1 = test system: IGROV-1
UO-31 = test system: UO-31
SK-OV-3 = test system: SK-OV-3
KM12 = test system: KM12
SNB-78 = test system: SNB-78
U-251 = test system: U-251
OVCAR-3 = test system: OVCAR-3
HCT-116 = test system: HCT-116
LOX IMVI = test system: LOX IMVI
UACC-257 = test system: UACC-257
SNB-75 = test system: SNB-75
MOLT-4 = test system: MOLT-4
SK-MEL-5 = test system: SK-MEL-5
A549 = test system: A549
CCRF-CEM = test system: CCRF-CEM
XF498 = test system: XF498
RXF 393 = test system: RXF 393
M14 = test system: M14
SF-268 = test system: SF-268
DMS-114 = test system: DMS-114
LXFL 529 = test system: LXFL 529
K562 = test system: K562
HOP-92 = test system: HOP-92
SN12C = test system: SN12C
RXF 631 = test system: RXF 631

Measured: GI50

O=c1c([Se]c2coc3ccccc3c2=O)coc2ccccc12
inactive: HOP-18 15.7 µM | OVCAR-8 12.7 µM | SR 4.72 µM | NCI-H522 18.4 µM | COLO 205 16.2 µM | Malme-3M 17.8 µM | DMS-273 11 µM | NCI-H23 15.6 µM | DLD-1 18.2 µM | SW-620 19 µM | ACHN 18.2 µM | HL-60 23 µM | EKVX 18.7 µM | HCC 2998 17.7 µM | TK-10 17.7 µM | SF-295 2.76 µM | HOP-62 4.89 µM | OVCAR-4 16.9 µM | SF-539 11.9 µM | RPMI-8226 22.8 µM | UACC-62 17.1 µM | OVCAR-5 16.2 µM | 786-0 18.5 µM | SK-MEL-28 17.1 µM | M19-MEL 15.3 µM | SNB-19 14 µM | KM-20L2 12 µM | NCI-H226 14.1 µM | SK-MEL-2 18.2 µM | CAKI-1 20 µM | HT-29 17.1 µM | NCI-H460 3.65 µM | A498 19.1 µM | IGROV-1 10.5 µM | UO-31 13.5 µM | SK-OV-3 16.2 µM | KM12 11.3 µM | SNB-78 19.9 µM | U-251 7.13 µM | OVCAR-3 18 µM | HCT-116 3.8 µM | LOX IMVI 16 µM | UACC-257 17.4 µM | SNB-75 15.6 µM | MOLT-4 9.18 µM | SK-MEL-5 16.3 µM | A549 6.3 µM | CCRF-CEM 18.1 µM | XF498 16.8 µM | RXF 393 15.9 µM | M14 14.9 µM | SF-268 19.5 µM | DMS-114 17.5 µM | LXFL 529 15.4 µM | K562 34.1 µM | HOP-92 17.6 µM | SN12C 15 µM
16.9 µM: HCT-15

CC1=C2C3OC(=O)C(C)C3C(O)C[C@@]2(C)C(=O)CC1 (stereo not given in full)
inactive: HOP-18 > 100 µM | OVCAR-8 > 100 µM | SR > 100 µM | NCI-H522 > 100 µM | COLO 205 > 100 µM | RXF 631 > 100 µM | Malme-3M > 100 µM | DMS-273 > 100 µM | DLD-1 > 100 µM | SW-620 > 100 µM | ACHN > 100 µM | HL-60 > 100 µM | EKVX > 100 µM | HCC 2998 > 100 µM | TK-10 > 100 µM | SF-295 > 100 µM | HOP-62 > 100 µM | OVCAR-4 > 100 µM | SF-539 > 100 µM | RPMI-8226 > 100 µM | UACC-62 > 100 µM | OVCAR-5 > 100 µM | 786-0 > 100 µM | SK-MEL-28 > 100 µM | M19-MEL > 100 µM | SNB-19 > 100 µM | KM-20L2 > 100 µM | NCI-H226 > 100 µM | CAKI-1 > 100 µM | HT-29 > 100 µM | NCI-H460 > 100 µM | A498 > 100 µM | IGROV-1 > 100 µM | UO-31 > 100 µM | SK-OV-3 > 100 µM | KM12 > 100 µM | SNB-78 > 100 µM | U-251 > 100 µM | OVCAR-3 > 100 µM | HCT-116 > 100 µM | LOX IMVI > 100 µM | UACC-257 > 100 µM | SNB-75 > 100 µM | MOLT-4 > 100 µM | SK-MEL-5 > 100 µM | A549 > 100 µM | CCRF-CEM > 100 µM | RXF 393 > 100 µM | M14 > 100 µM | SF-268 > 100 µM | DMS-114 > 100 µM | LXFL 529 > 100 µM | HOP-92 > 100 µM | SN12C > 100 µM
> 100 µM: HCT-15

COc1cc(C2c3cc4c(cc3C(NCC(O)CO)C3COC(=O)[C@H]23)OCO4)cc(OC)c1OC (stereo not given in full)
2.45 µM: HCT-15
inactive: HOP-18 > 100 µM | Malme-3M > 100 µM | TK-10 > 100 µM | OVCAR-5 > 100 µM | IGROV-1 > 100 µM | UO-31 4.37 µM | UACC-257 > 100 µM
active: OVCAR-8 0.429 µM | SR 0.177 µM | NCI-H522 0.0405 µM | COLO 205 0.184 µM | DMS-273 0.292 µM | NCI-H23 0.267 µM | DLD-1 0.531 µM | SW-620 0.51 µM | ACHN 0.69 µM | HL-60 0.0785 µM | EKVX 0.4 µM | HCC 2998 0.428 µM | SF-295 0.213 µM | HOP-62 0.221 µM | SF-539 0.146 µM | RPMI-8226 0.321 µM | UACC-62 0.0973 µM | 786-0 0.578 µM | SK-MEL-28 0.617 µM | M19-MEL 0.927 µM | SNB-19 0.356 µM | KM-20L2 0.143 µM | NCI-H226 0.289 µM | HT-29 0.34 µM | NCI-H460 0.435 µM | SK-OV-3 0.422 µM | KM12 0.217 µM | SNB-78 0.0944 µM | U-251 0.236 µM | LOX IMVI 0.146 µM | SNB-75 0.318 µM | MOLT-4 0.272 µM | CCRF-CEM 0.407 µM | XF498 0.372 µM | M14 0.533 µM | SF-268 0.374 µM | DMS-114 0.0733 µM | LXFL 529 0.163 µM | K562 0.361 µM | SN12C 0.466 µM

C=C(Nc1ccc(OC)cc1OC)C(=O)Cc1cccc[n+]1[O-]
> 100 µM: HCT-15
inactive: HOP-18 > 100 µM | OVCAR-8 > 100 µM | SR > 100 µM | NCI-H522 > 100 µM | COLO 205 > 100 µM | Malme-3M > 100 µM | DMS-273 > 100 µM | NCI-H23 > 100 µM | DLD-1 > 100 µM | SW-620 > 100 µM | ACHN > 100 µM | HL-60 > 100 µM | EKVX > 100 µM | HCC 2998 > 100 µM | TK-10 > 100 µM | SF-295 > 100 µM | HOP-62 > 100 µM | OVCAR-4 > 100 µM | SF-539 > 100 µM | RPMI-8226 > 100 µM | UACC-62 > 100 µM | OVCAR-5 > 100 µM | 786-0 > 100 µM | SK-MEL-28 > 100 µM | M19-MEL > 100 µM | SNB-19 > 100 µM | KM-20L2 > 100 µM | NCI-H226 > 100 µM | SK-MEL-2 > 100 µM | CAKI-1 > 100 µM | HT-29 > 100 µM | NCI-H460 > 100 µM | A498 > 100 µM | IGROV-1 > 100 µM | UO-31 > 100 µM | SK-OV-3 > 100 µM | KM12 > 100 µM | SNB-78 > 100 µM | U-251 > 100 µM | OVCAR-3 > 100 µM | HCT-116 > 100 µM | LOX IMVI > 100 µM | UACC-257 > 100 µM | SNB-75 > 100 µM | MOLT-4 > 100 µM | SK-MEL-5 > 100 µM | A549 > 100 µM | CCRF-CEM > 100 µM | XF498 > 100 µM | RXF 393 > 100 µM | M14 > 100 µM | SF-268 > 100 µM | DMS-114 > 100 µM | LXFL 529 > 100 µM | K562 > 100 µM | HOP-92 > 100 µM | SN12C > 100 µM

NC(=O)c1cn(C2OC(CO)C(O)C2O)c(=O)[nH]c1=O (stereo not given)
> 100 µM: HCT-15
inactive: OVCAR-8 > 100 µM | SR > 100 µM | NCI-H522 > 100 µM | COLO 205 > 100 µM | RXF 631 > 100 µM | DMS-273 > 100 µM | NCI-H23 > 100 µM | DLD-1 > 100 µM | SW-620 > 100 µM | ACHN > 100 µM | HL-60 > 100 µM | EKVX > 100 µM | TK-10 > 100 µM | SF-295 > 100 µM | HOP-62 > 100 µM | OVCAR-4 > 100 µM | SF-539 > 100 µM | RPMI-8226 > 100 µM | UACC-62 > 100 µM | OVCAR-5 > 100 µM | 786-0 > 100 µM | SK-MEL-28 > 100 µM | M19-MEL > 100 µM | NCI-H226 > 100 µM | SK-MEL-2 > 100 µM | CAKI-1 > 100 µM | HT-29 > 100 µM | NCI-H460 > 100 µM | A498 > 100 µM | IGROV-1 > 100 µM | UO-31 > 100 µM | SK-OV-3 > 100 µM | KM12 > 100 µM | SNB-78 > 100 µM | U-251 > 100 µM | OVCAR-3 > 100 µM | HCT-116 > 100 µM | LOX IMVI > 100 µM | UACC-257 > 100 µM | SNB-75 > 100 µM | MOLT-4 > 100 µM | SK-MEL-5 > 100 µM | A549 > 100 µM | CCRF-CEM > 100 µM | M14 > 100 µM | SF-268 > 100 µM | DMS-114 > 100 µM | LXFL 529 > 100 µM | K562 > 100 µM | HOP-92 > 100 µM
